Reference: paper PMC8903829 (eLife, 2022)

Columns and labels:
[1] = Bioanalytical assessment of plasma and brain concentrations after 6 Hz assay; type: in vivo, mouse; conditions: mouse, oral, SCN8A mouse 6HZ
Experimental: (§1) Approximately 0.5 mL of blood was collected from each mouse at the end of the assay via cardiac puncture under deep anesthesia. The blood samples were collected in a syringe and transferred to tubes containing EDTA. Blood was stored at 4 °C until centrifuged within 30 min of collection. Plasma was harvested and placed on dry ice and stored in a freezer set to maintain a temperature of –70°C to –80°C until analysis. Brains were harvested immediately after blood collection and placed on dry ice prior to storage in a freezer set to maintain a temperature of –70°C to –80°C until analysis.
(§2) Extraction of plasma samples was carried out by protein precipitation using acetonitrile. Plasma samples (50 µL) were mixed with 50 µL of internal standard (IS) solution in water followed by addition of 10 µL of concentrated ortho-phosphoric acid and 200 µL of acetonitrile. Samples were vortexed for 30 seconds, centrifuged at 13,000 rpm for 20 min, decanted in to a 96-well plate, and further centrifuged at 4000 rpm for 20 min. The samples were analyzed by UHPLC-ESI-MS/MS as described below.
(§3) Prior to extraction, pre-weighed whole brains were homogenized in 1:1 acetonitrile/water (v/v) (4 mL per mouse brain) using an IKA T18 ULTRA-TURRAX Homogenizer at the setting of 4 for approximately 2 min. The homogenate was centrifuged at 13,000 rpm for 20 min and 50 µL of the supernatant were treated exactly as described above for plasma samples. […]
(§4) Samples were analyzed by UHPLC-ESI MS/MS using a TQ-5500 Sciex triple quadrupole mass spectrometer equipped with a Shimadzu Nexera UHPLC pump and auto-sampler system using an ACE C18 PFP, 2.50 × 50 mm, 1.7 µm particle size column and gradient elution consisting of solvent A (0.1% formic acid in water) and solvent B (0.1% formic acid in acetonitrile) starting at 20% B from 0 min to 0.4 min and then increased to 100% B from 0.4 min to 0.6 min. At 2.0 min, the mobile phase composition was switched back to […] for 1 min. The flow rate used throughout the experiment was […]. […] The UHPLC-ESI MS/MS system was controlled by Analyst 1.6.
(§5) Sample concentrations were determined using a linear calibration function, weighted 1 /X, generated by the regression of analyte to IS peak area ratios in the standard samples to their respective concentrations. Acceptance criteria for the analytical run required that the back calculated values of the standards and the QC samples fell within ±20% of their nominal values, except for the lowest standard or lower limit of quantitation (LLOQ), for which the acceptance criterion was ±25%. At least 6 out of 12 standard points had to show back-calculated values within ±20% of their nominal concentrations for the calibration to be accepted. At least three QC samples, one at each level, had to show back-calculated values within ±20% of their nominal concentrations for the whole sample batch to be valid.

[2] = Bioanalytical assessment of plasma and brain concentrations after mouse DC-MES assay; type: in vivo; conditions: mouse, oral, WT mouse DC-MES acute
Experimental: as §1, §2, §3, §4, §5

[3] = Bioanalytical assessment of plasma and brain concentrations after rat DC-MES assay; type: in vivo; conditions: rat, oral, Rat DC-MES
[4] = tested on: Sprague Dawley rats; assay: Observation of potential adverse behavior (behavioral signs) in the rat DC-MES studies; type: in vivo; conditions: rat
Experimental: Animals were observed by the scientist(s) responsible for dosing for the first 30 min after dosing for and again at the time of assay (2 hr post dose) for signs of abnormal behavior.

[5] = tested on: wild-type mice (CF-1); assay: DC-Maximal electroshock seizure assay (DC-MES); type: in vivo, mouse
Experimental: Phenytoin was formulated in physiologic saline and was administered intraperitoneally (i.p.) using a 25-gauge needle at a dose volume of 10 mL/kg. All compounds were administered 2 hr prior to electrical seizure induction for all seizure models employed in this study.
The maximal electroshock seizure (MES) assay has been extensively used in the search for anticonvulsant substances ([Löscher et al., 1991]; [Piredda et al., 1985]; [White et al., 1995]). The MES assay is sensitive to nonselective NaV inhibitors. It is considered a model for generalized tonic-clonic (GTC) seizures and provides an assessment of seizure spread. Briefly, an electroshock of direct current (DC) was delivered by corneal electrodes (Electro Convulsive Therapy Unit 57,800 from Ugo Basile). The parameters of stimulation were different between mice and rats. In CF1 mice aged 9–12 weeks, a direct current of 50 mA (60 Hz) was delivered for 0.2 s (pulse width of 0.5ms), whereas in Sprague Dawley (SD) rats aged 5–6 weeks, a direct current of 150 mA (60 Hz) was delivered for 0.3 s (pulse width of 0.5ms). Immediately prior to the electroshock, the animals’ eyes were anesthetized with a drop of Alcaine (0.5% proparacaine hydrochloride).
An animal was considered protected in the assay in the absence of a GTC with hindlimb extension and is then scored ‘0’. An animal displaying GTC with hindlimb extension was considered not protected and is then scored ‘1’. The experimenter scoring the seizure behavior was blinded to the treatment.

Structure (SMILES): NC(=O)N1c2ccccc2C=Cc2ccccc21 [carbamazepine, Carbamazepine, reference compound]
- concentration at 2 h ([1]; Scn8a N1768D/+, brain, 3 mg/kg, Study15064, 3 mg/kg, read-out: Mean [Brain]): 0.943 µM
- concentration at 2 h ([1]; Scn8a N1768D/+, brain, 3 mg/kg, Study16152, 3 mg/kg, read-out: Mean [Brain]): 2.7 µM
- concentration at 2 h ([1]; Scn8a N1768D/+, brain, 3 mg/kg, Study16162, 3 mg/kg, read-out: Mean [Brain]): 4.89 µM
- concentration at 2 h ([1]; Scn8a N1768D/+, brain, 10 mg/kg, Study15064, 10 mg/kg, read-out: Mean [Brain]): 2.24 µM
- concentration at 2 h ([1]; Scn8a N1768D/+, brain, 10 mg/kg, Study16152, 10 mg/kg, read-out: Mean [Brain]): 11.4 µM
- concentration at 2 h ([1]; Scn8a N1768D/+, brain, 10 mg/kg, Study16162, 10 mg/kg, read-out: Mean [Brain]): 15.7 µM
- concentration at 2 h ([1]; Scn8a N1768D/+, brain, 30 mg/kg, Study16152, 30 mg/kg, read-out: Mean [Brain]): 40.7 µM
- concentration at 2 h ([1]; Scn8a N1768D/+, brain, 100 mg/kg, Study16162, 100 mg/kg, read-out: Mean [Brain]): 130 µM
- concentration at 2 h ([1]; Scn8a N1768D/+, plasma, 10 mg/kg, Study16162, 10 mg/kg, read-out: Mean [Palsma]): 20.7 µM
- concentration at 2 h ([1]; Scn8a N1768D/+, plasma, 100 mg/kg, Study16162, 100 mg/kg, read-out: Mean [Palsma]): 154 µM
- concentration at 2 h ([1]; Scn8a^N1768D/+, plasma, 3 mg/kg, Study15064, 3 mg/kg, read-out: Mean [Palsma]): 1.14 µM
- concentration at 2 h ([1]; Scn8a^N1768D/+, plasma, 3 mg/kg, Study16152, 3 mg/kg, read-out: Mean [Palsma]): 4.75 µM
- concentration at 2 h ([1]; Scn8a^N1768D/+, plasma, 3 mg/kg, Study16162, 3 mg/kg, read-out: Mean [Palsma]): 7.46 µM
- concentration at 2 h ([1]; Scn8a^N1768D/+, plasma, 10 mg/kg, Study15064, 10 mg/kg, read-out: Mean [Palsma]): 5.96 µM
- concentration at 2 h ([1]; Scn8a^N1768D/+, plasma, 10 mg/kg, Study16152, 10 mg/kg, read-out: Mean [Palsma]): 15.4 µM
- concentration at 2 h ([1]; Scn8a^N1768D/+, plasma, 30 mg/kg, Study16152, 30 mg/kg, read-out: Mean [Palsma]): 48.7 µM
- concentration at 2 h ([2]; brain, 10 mg/kg, Study17131, 10 mg/kg, read-out: Mean [Brain]): 18.3 µM
- concentration at 2 h ([2]; brain, 10 mg/kg, Study17134, 10 mg/kg, read-out: Mean [Brain]): 17.4 µM
- concentration at 2 h ([2]; brain, 30 mg/kg, Study17131, 30 mg/kg, read-out: Mean [Brain]): 43.1 µM
- concentration at 2 h ([2]; brain, 30 mg/kg, Study17134, 30 mg/kg, read-out: Mean [Brain]): 46 µM
- concentration at 2 h ([2]; brain, 100 mg/kg, Study17131, 100 mg/kg, read-out: Mean [Brain]): 115 µM
- concentration at 2 h ([2]; plasma, 10 mg/kg, Study17131, 10 mg/kg, read-out: Mean [Palsma]): 13.6 µM
- concentration at 2 h ([2]; plasma, 10 mg/kg, Study17134, 10 mg/kg, read-out: Mean [Palsma]): 16.6 µM
- concentration at 2 h ([2]; plasma, 30 mg/kg, Study17131, 30 mg/kg, read-out: Mean [Palsma]): 34.5 µM
- concentration at 2 h ([2]; plasma, 30 mg/kg, Study17134, 30 mg/kg, read-out: Mean [Palsma]): 52.5 µM
- concentration at 2 h ([2]; plasma, 100 mg/kg, Study17131, 100 mg/kg, read-out: Mean [Palsma]): 91.3 µM
- concentration at 2 h ([3]; brain, 3 mg/kg, Study18058, 3 mg/kg, read-out: Mean [Brain]): 0.979 µM
- concentration at 2 h ([3]; brain, 10 mg/kg, Study18058, 10 mg/kg, read-out: Mean [Brain]): 4.24 µM
- concentration at 2 h ([3]; brain, 20 mg/kg, Study18058, 20 mg/kg, read-out: Mean [Brain]): 11 µM
- concentration at 2 h ([3]; brain, 30 mg/kg, Study18068, 30 mg/kg, read-out: Mean [Brain]): 30.4 µM
- concentration at 2 h ([3]; brain, 100 mg/kg, Study18068, 100 mg/kg, read-out: Mean [Brain]): 55.5 µM
- concentration at 2 h ([3]; brain, 300 mg/kg, Study18085, 300 mg/kg, read-out: Mean [Brain]): 79.9 µM
- concentration at 2 h ([3]; plasma, 3 mg/kg, Study18058, 3 mg/kg, read-out: Mean [Palsma]): 0.966 µM
- concentration at 2 h ([3]; plasma, 10 mg/kg, Study18058, 10 mg/kg, read-out: Mean [Palsma]): 4.27 µM
- concentration at 2 h ([3]; plasma, 20 mg/kg, Study18058, 20 mg/kg, read-out: Mean [Palsma]): 11.3 µM
- concentration at 2 h ([3]; plasma, 30 mg/kg, Study18068, 30 mg/kg, read-out: Mean [Palsma]): 24 µM
- concentration at 2 h ([3]; plasma, 100 mg/kg, Study18068, 100 mg/kg, read-out: Mean [Palsma]): 42.7 µM
- concentration at 2 h ([3]; plasma, 300 mg/kg, Study18085, 300 mg/kg, read-out: Mean [Palsma]): 65.9 µM
- minimal plasma concentration provoking behavioral signs (BSC) [4]: 110 µM
- WT mouse DC-MES acute Fraction of animals seizing ([5]; Study17131, 10 mg/kg): 0.7143
- WT mouse DC-MES acute Fraction of animals seizing ([5]; Study17131, 30 mg/kg): 0.4286
- WT mouse DC-MES acute Fraction of animals seizing ([5]; Study17131, 100 mg/kg): 0.1429
- WT mouse DC-MES acute Fraction of animals seizing ([5]; Study17134, 10 mg/kg): 0.8571
- WT mouse DC-MES acute Fraction of animals seizing ([5]; Study17134, 30 mg/kg): 0.4286
- EC50 ([5]; WT mouse DC-MES, 2 hr post dose (oral; phenytoin i.p.), read-out: brain EC50): 44 µM
